Test results taken from patent US20240116933A1, “INDAZOLE AND PYRAZOLOPYRIDINE COMPOUNDS AS INHIBITORS OF NLRP3 INFLAMMASOME” (BioAge Labs, Inc., priority 2022, published 2024).

Molecular target: T1, NLRP3 inflammasome (Homo sapiens, UniProt Q96P20)
T1 construct: endogenous in cells; host or cells: THP-1 cells (PMA-differentiated, LPS-primed, nigericin-stimulated)
Experiment: THP-1 Cell-Based NLRP3 Activation Assay
Details: THP-1 cells, PMA, 100 ng/mL LPS 3 hrs, 30 min pre-incubation with test compound, 10 μM nigericin 1 hr
Method: THP-1 cells are cultured in complete media (CM) until they reach logarithmic growth and achieve a viability >90%. CM is composed of RPMI-1640 (+Glutamax)/10% fetal bovine serum/55 μM β-mercaptoethanol/pen/strep. Cells are spun down and resuspended to 1,000,000 cells/mL in CM containing either 20 nM or 500 nM PMA. 150,000 cells […] are then added to each well of a 96-well TC plate and incubated for either 24 hr or 3 hr, respectively, in a standard cell culture incubator (37° C.; 5% CO2). After this incubation, the plate is tilted and media carefully removed. 200 μL of CM containing 100 ng/mL LPS is then added to the wells and the cells incubated an additional 3 hrs. The media is again removed and replaced with Opti-Mem medium containing pre-determined dilutions of test compounds in replicate wells. After a 30 min pre-incubation with test compound, 10 μM nigericin (final concentration) in Opti-Mem medium with the corresponding concentration of compound is added to the wells for an additional 1 hr. Positive control wells contain 10 μM nigericin in Opti-Mem in the absence of test compound, while negative control wells contain Opti-Mem only. […] Once supernatants are removed, the relative viability of adherent cells in the 96-well TC plate are determined using a CellTiter-Glo® luminescent cell viability assay (Promega).

T1 sequence (Q96P20 whole entry): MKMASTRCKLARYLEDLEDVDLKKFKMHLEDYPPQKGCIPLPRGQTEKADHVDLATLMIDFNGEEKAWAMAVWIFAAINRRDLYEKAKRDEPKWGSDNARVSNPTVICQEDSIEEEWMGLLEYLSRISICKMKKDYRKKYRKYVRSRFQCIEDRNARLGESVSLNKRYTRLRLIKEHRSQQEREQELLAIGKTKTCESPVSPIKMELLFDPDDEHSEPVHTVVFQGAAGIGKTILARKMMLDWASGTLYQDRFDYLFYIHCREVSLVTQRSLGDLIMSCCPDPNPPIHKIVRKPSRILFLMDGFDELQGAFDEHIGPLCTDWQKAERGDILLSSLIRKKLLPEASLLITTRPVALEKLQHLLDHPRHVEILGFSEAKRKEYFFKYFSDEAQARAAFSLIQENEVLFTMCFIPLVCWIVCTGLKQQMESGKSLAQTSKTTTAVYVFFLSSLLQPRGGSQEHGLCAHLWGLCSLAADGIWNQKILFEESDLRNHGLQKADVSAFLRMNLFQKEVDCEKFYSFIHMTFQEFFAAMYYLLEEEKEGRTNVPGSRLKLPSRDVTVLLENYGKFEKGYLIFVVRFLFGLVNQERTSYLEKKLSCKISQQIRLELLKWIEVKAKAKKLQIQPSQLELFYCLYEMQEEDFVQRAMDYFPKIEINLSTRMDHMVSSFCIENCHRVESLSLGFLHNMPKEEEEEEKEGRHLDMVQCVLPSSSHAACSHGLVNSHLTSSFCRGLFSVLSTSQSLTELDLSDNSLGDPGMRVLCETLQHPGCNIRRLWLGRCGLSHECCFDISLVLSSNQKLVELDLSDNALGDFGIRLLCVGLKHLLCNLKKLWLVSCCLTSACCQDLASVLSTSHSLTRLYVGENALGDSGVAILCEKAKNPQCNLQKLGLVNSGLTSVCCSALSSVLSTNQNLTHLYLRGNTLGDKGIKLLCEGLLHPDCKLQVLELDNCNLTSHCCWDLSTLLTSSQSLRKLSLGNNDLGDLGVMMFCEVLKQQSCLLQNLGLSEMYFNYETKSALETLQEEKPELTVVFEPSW

| SMILES | IC50 |
| --- | --- |
| CN(Cc1cnc(CF)c2cn[nH]c12)C(=O)c1cc(F)c(-c2cc(F)cs2)c(OC2CC2)c1 [Compound 181] | < 1000 nM |
| CC(O)c1ncc(CN(C)C(=O)c2ccc(-c3ccc(Cl)s3)c(OC3CC3)c2)c2[nH]ncc12 (stereo not shown) [Compound 168] | < 1000 nM |
| CCOc1nc(C(=O)N(C)[C@H](C)c2cncc3cn[nH]c23)ccc1-c1cccc(F)c1 [Compound 057] | < 50000 nM |
| CCOc1nc(C(=O)N(C)[C@H](C)c2ccc(CF)c3cn[nH]c23)ccc1-c1cccc(F)c1 [Compound 075] | < 50000 nM |
| CCOc1cc(C(=O)NCc2cnc(CO)c3cn[nH]c23)ccc1-c1cccc(F)c1 [Compound 150] | < 1000 nM |
| CCOc1cc(C(=O)N(C)Cc2cnc(C(C)O)c3cn[nH]c23)cc(F)c1-c1cccc(C#N)c1 (stereo not shown) [Compound 090] | < 10000 nM |
| CCOc1cc(C(=O)N(C)Cc2cnc(C(C)O)c3cn[nH]c23)cc(F)c1-c1cc(F)cc(Cl)c1 (stereo not shown) [Compound 096] | < 1000 nM |
| CN(Cc1cnc(CO)c2cn[nH]c12)C(=O)c1cc(Cl)c(-c2cccc(F)c2)c(OC2CC2)c1 [Compound 162] | < 1000 nM |
| CCOc1cc(C(=O)N(C)[C@H](C)c2cc(F)cc3cn[nH]c23)ccc1-c1cccc(F)c1 [Compound 043] | < 50000 nM |
| Cc1nc(CO)c2cn[nH]c2c1CN(C)C(=O)c1ccc(-c2cccc(C#N)c2)c(OC2CC2)c1 [Compound 078] | < 1000 nM |
| CCOc1cc(C(=O)N(C)Cc2cccc3[nH]ncc23)ccc1-c1cccc(F)c1 [Compound 129] | < 10000 nM |
| CN(Cc1cnc(CO)c2cn[nH]c12)C(=O)c1ccc(-c2cccc(F)c2)c(OC2COC2)c1 [Compound 151] | < 10000 nM |
| CCOc1cc(C(=O)N(C)Cc2cc(CO)cc3cn[nH]c23)ccc1-c1cccc(F)c1 [Compound 069] | < 1000 nM |
| CCOc1cc(C(=O)N(C)Cc2cnc(CO)c3cn[nH]c23)cc(F)c1-c1cccs1 [Compound 106] | < 1000 nM |
| CC(C)Oc1cc(C(=O)N(C)Cc2cnc(CO)c3cn[nH]c23)ccc1-c1cc(F)cc(F)c1 [Compound 142] | < 1000 nM |
| CCOc1cc(C(=O)N(C)Cc2cnc(C)c3cn[nH]c23)ccc1-c1cc(C#N)cs1 [Compound 153] | < 10000 nM |
| CN(Cc1cnc(CO)c2cn[nH]c12)C(=O)c1cc(F)c(-c2cccc(Cl)c2)c(OC2CC2)c1 [Compound 047] | < 1000 nM |
| CCOc1nc(C(=O)N(C)[C@@H](C)c2ccc(CF)c3cn[nH]c23)ccc1-c1cccc(F)c1 [Compound 074] | < 50000 nM |
| CCOc1cc(C(=O)N(C)Cc2cnc(C(C)O)c3cn[nH]c23)cc(Cl)c1-c1cccc(Cl)c1 (stereo not shown) [Compound 166] | < 1000 nM |
| CN(Cc1cnc(CO)c2cn[nH]c12)C(=O)c1ccc(-c2cc(F)cc(Cl)c2)c(OC2COC2)c1 [Compound 152] | < 1000 nM |
| CCOc1cc(C(=O)N(C)Cc2cnc(CO)c3cn[nH]c23)ccc1-c1nc(Cl)cs1 [Compound 157] | < 1000 nM |
| CCOc1cc(C(=O)N(C)Cc2cnc(C(C)O)c3cn[nH]c23)cc(Cl)c1-c1cccc(F)c1 (stereo not shown) [Compound 156] | < 50000 nM |
| CCOc1cc(C(=O)N(CC)Cc2cnc(CO)c3cn[nH]c23)ccc1-c1cccc(C#N)c1 [Compound 103] | < 10000 nM |

| SMILES | IC50 |
| --- | --- |
| CCOc1cc(C(=O)N(C)Cc2cnc(C(C)O)c3cn[nH]c23)ccc1-c1cccc(C#N)c1 (stereo not shown) [Compound 029] | < 1000 nM |
| CCC(c1cncc2cn[nH]c12)N(C)C(=O)c1ccc(-c2cccc(F)c2)c(OC2CC2)c1 (stereo not shown) [Compound 109] | < 1000 nM |
| CN(Cc1c(CO)ncc2cn[nH]c12)C(=O)c1cc(F)c(-c2cccc(F)c2)c(OC2CC2)c1 [Compound 139] | < 1000 nM |
| CCOc1cc(C(=O)N(C)Cc2cc(O)cc3cn[nH]c23)cc(F)c1-c1cccc(F)c1 [Compound 098] | < 1000 nM |
| Cc1ncc2cn[nH]c2c1CN(C)C(=O)c1cc(F)c(-c2cccc(Cl)c2)c(OC2CC2)c1 [Compound 068] | < 1000 nM |
| CCOc1cc(C(=O)N(C)Cc2cc(O)cc3cn[nH]c23)cc(F)c1-c1ccccc1 [Compound 112] | < 1000 nM |
| CCOc1nc(C(=O)N(C)[C@@H](C)c2cncc3cn[nH]c23)ccc1-c1cccc(F)c1 [Compound 056] | < 1000 nM |
| Cc1ncc(CN(C)C(=O)c2cc(F)c(-c3cccc(F)c3)c(OC3CC3)c2)c2[nH]ncc12 [Compound 038] | < 1000 nM |
| CCOc1nc(C(=O)N(C)Cc2cnc(CF)c3cn[nH]c23)ccc1-c1cccc(C(F)(F)F)c1 [Compound 046] | < 1000 nM |
| CCOc1cc(C(=O)N(C)Cc2cnc(C(C)O)c3cn[nH]c23)cc(F)c1-c1ccsc1 (stereo not shown) [Compound 088] | < 1000 nM |
| CCN(Cc1cnc(CO)c2cn[nH]c12)C(=O)c1cc(F)c(-c2cccc(C#N)c2)c(OC2CC2)c1 [Compound 087] | < 1000 nM |
| CCOc1cc(C(=O)N(C)Cc2cnc(CO)c3cn[nH]c23)cc(F)c1-c1cc(C#N)cs1 [Compound 073] | < 1000 nM |
| CC(C)Oc1cc(C(=O)N(C)Cc2cnc(CO)c3cn[nH]c23)ccc1-c1cccc(F)c1 [Compound 134] | < 1000 nM |
| CCOc1cc(C(=O)N(C)Cc2cnc(C(C)O)c3cn[nH]c23)ccc1-c1cccc(Cl)c1 (stereo not shown) [Compound 030] | < 1000 nM |
| CCOc1cc(C(=O)N(C)Cc2cnc(C(C)F)c3cn[nH]c23)ccc1-c1cccc(F)c1 (stereo not shown) [Compound 070] | < 1000 nM |
| CN(Cc1cnc(CO)c2cn[nH]c12)C(=O)c1ccc(-c2cccc(Cl)c2)c(OC2CCC2)c1 [Compound 084] | < 1000 nM |
| CCOc1cc(C(=O)N(C)Cc2cnc(C)c3cn[nH]c23)ccc1-c1cc(F)cs1 [Compound 140] | < 10000 nM |
| CCOc1cc(C(=O)N(C)[C@@H](C)c2cc(F)cc3cn[nH]c23)ccc1-c1cccc(F)c1 [Compound 042] | < 1000 nM |
| Cc1ncc(CNC(=O)c2cc(F)c(-c3cccc(Cl)c3)c(OC3CC3)c2)c2[nH]ncc12 [Compound 122] | < 1000 nM |
| CCOc1cc(C(=O)N(C)Cc2cccc3cn[nH]c23)sc1-c1cccc(F)c1 [Compound 121] | < 1000 nM |
| CCOc1nc(C(=O)N(C)Cc2cc(O)cc3cn[nH]c23)ccc1-c1cccc(F)c1 [Compound 128] | < 10000 nM |
| CCN(Cc1cnc(CO)c2cn[nH]c12)C(=O)c1ccc(-c2cccc(F)c2)c(OC2CC2)c1 [Compound 100] | < 1000 nM |
| CCOc1cc(C(=O)N(C)Cc2cnc(CO)c3cn[nH]c23)cc(F)c1-c1cc(F)cc(F)c1 [Compound 131] | < 1000 nM |

| SMILES | IC50 |
| --- | --- |
| CCOc1cc(C(=O)N(C)Cc2c(CO)ncc3cn[nH]c23)ccc1-c1cccc(F)c1 [Compound 039] | < 1000 nM |
| C[C@@H](c1cncc2cn[nH]c12)N(C)C(=O)c1ccc(-c2cccc(F)c2)c(OC2CC2)c1 [Compound 052] | < 1000 nM |
| CCOc1cc(C(=O)N(C)Cc2cnc(CO)c3cn[nH]c23)cc(Cl)c1-c1cccc(F)c1 [Compound 175] | < 10000 nM |
| CCOc1cc(C(=O)N(C)Cc2cnc(CO)c3cn[nH]c23)cc(F)c1-c1ccsc1 [Compound 107] | < 1000 nM |
| Cc1ncc(CN(C)C(=O)c2cc(F)c(-c3cccc(Cl)c3)c(OC3CC3)c2)c2[nH]ncc12 [Compound 048] | < 1000 nM |
| CC(C)Oc1cc(C(=O)N(C)Cc2cnc(CO)c3cn[nH]c23)ccc1-c1cccc(Cl)c1 [Compound 143] | < 1000 nM |
| CC(C)Oc1cc(C(=O)N(C)Cc2cnc(C(C)O)c3cn[nH]c23)ccc1-c1cc(F)cc(F)c1 (stereo not shown) [Compound 146] | < 1000 nM |
| CCOc1cc(C(=O)N(C)[C@@H](C)c2cnc(CO)c3cn[nH]c23)ccc1-c1cccc(F)c1 [Compound 160] | < 1000 nM |
| CN(Cc1cnc(CF)c2cn[nH]c12)C(=O)c1cc(F)c(-c2cccc(Cl)c2)c(OC2CC2)c1 [Compound 071] | < 1000 nM |
| CN(Cc1cnc(CO)c2cn[nH]c12)C(=O)c1ccc(-c2cccc(F)c2)c(OC2CCC2)c1 [Compound 137] | < 1000 nM |
| CCOc1cc(C(=O)N(C)Cc2cnc(C)c3cn[nH]c23)cc(CF)c1-c1cccc(F)c1 [Compound 125] | < 10000 nM |
| CCOc1cc(C(=O)N(C)[C@H](C)c2ccc(CF)c3cn[nH]c23)ccc1-c1cccc(F)c1 (single isomer, unassigned) [Compound 169] | < 10000 nM |
| CCOc1cc(C(=O)N(C)Cc2c(C)nc(C(C)O)c3cn[nH]c23)ccc1-c1cccc(F)c1 (stereo not shown) [Compound 079] | < 1000 nM |
| CCOc1cc(C(=O)N(CC)Cc2cnc(C(C)O)c3cn[nH]c23)ccc1-c1cccc(Cl)c1 (stereo not shown) [Compound 176] | < 1000 nM |
| CCOc1cc(C(=O)N(C)Cc2c(COC)ncc3cn[nH]c23)ccc1-c1cccc(F)c1 [Compound 077] | < 1000 nM |
| CCOc1cc(C(=O)N(C)[C@H](C)c2cccc3cn[nH]c23)ccc1-c1cccc(F)c1 [Compound 058] | < 50000 nM |
| CCOc1cc(C(=O)N(CC)Cc2cnc(C(C)O)c3cn[nH]c23)cc(F)c1-c1cccc(Cl)c1 (stereo not shown) [Compound 172] | < 1000 nM |
| CCOc1cc(C(=O)N(C)Cc2cnc(CF)c3cn[nH]c23)ccc1C#CC1CC1 [Compound 001] | < 1000 nM |
| CCOc1cc(C(=O)N(CC)Cc2cnc(C(C)O)c3cn[nH]c23)ccc1-c1cccc(F)c1 (stereo not shown) [Compound 067] | < 1000 nM |
| CCOc1cc(C(=O)N(C)Cc2cc(O)c(C)c3cn[nH]c23)ccc1-c1cccc(F)c1 [Compound 015] | < 1000 nM |
| Cc1ncc(CN(C)C(=O)c2cc(F)c(-c3ccccc3)c(OC3CC3)c2)c2[nH]ncc12 [Compound 064] | < 1000 nM |
